SMILES strings stand for the structures. The source made the active and inactive calls. No rule for the calls is given here.

This data set concerns CCRIS mutagenicity, Ames/micronucleus/aberration tests. The data set is described as follows: CCRIS mutagenicity studies.
The mark [1] stands for this setting: Test System: AMES SALMONELLA TYPHIMURIUM, Strain/Indicator: TA98, Metabolic Activation: NONE, Method: PREINCUBATION
The mark [2] stands for this setting: Test System: AMES SALMONELLA TYPHIMURIUM, Strain/Indicator: TA100, Metabolic Activation: NONE, Method: PREINCUBATION
Where [3] appears, read: Test System: AMES SALMONELLA TYPHIMURIUM, Strain/Indicator: TA1535, Metabolic Activation: NONE, Method: PREINCUBATION
[4] abbreviates: Test System: AMES SALMONELLA TYPHIMURIUM, Strain/Indicator: TA1537, Metabolic Activation: NONE, Method: PREINCUBATION
The mark [5] stands for this setting: Test System: AMES SALMONELLA TYPHIMURIUM, Strain/Indicator: TA98, Metabolic Activation: NONE, Method: STANDARD PLATE.
[6] abbreviates: Test System: AMES SALMONELLA TYPHIMURIUM, Strain/Indicator: TA100, Metabolic Activation: NONE, Method: STANDARD PLATE.

On to `NCCCNCCCN`, for which the mutagenic call runs as follows: (Test System: AMES SALMONELLA TYPHIMURIUM, Strain/Indicator: TA98, Metabolic Activation: HAMSTER, LIVER, S-9, AROCLOR 1254 (10%), Method: PREINCUBATION) “inactive; negative”; under setting [1], “inactive; negative”; (Test System: AMES SALMONELLA TYPHIMURIUM, Strain/Indicator: TA98, Metabolic Activation: RAT, LIVER, S-9, AROCLOR 1254 (10%), Method: PREINCUBATION) “inactive; negative”; (Test System: AMES SALMONELLA TYPHIMURIUM, Strain/Indicator: TA98, Metabolic Activation: RAT, LIVER, S-9, PCB, Method: PREINCUBATION) “inactive; negative”; (Test System: AMES SALMONELLA TYPHIMURIUM, Strain/Indicator: TA100, Metabolic Activation: HAMSTER, LIVER, S-9, AROCLOR 1254 (10%), Method: PREINCUBATION) “inactive; negative”; under setting [2], “inactive; negative”. In addition, the mutagenic call is “inactive; negative” (Test System: AMES SALMONELLA TYPHIMURIUM, Strain/Indicator: TA100, Metabolic Activation: RAT, LIVER, S-9, AROCLOR 1254 (10%), Method: PREINCUBATION); “inactive; negative” (Test System: AMES SALMONELLA TYPHIMURIUM, Strain/Indicator: TA100, Metabolic Activation: RAT, LIVER, S-9, PCB, Method: PREINCUBATION); “inactive; negative” (Test System: AMES SALMONELLA TYPHIMURIUM, Strain/Indicator: TA1535, Metabolic Activation: HAMSTER, LIVER, S-9, AROCLOR 1254 (10%), Method: PREINCUBATION); “inactive; negative” under setting [3]; “inactive; negative” (Test System: AMES SALMONELLA TYPHIMURIUM, Strain/Indicator: TA1535, Metabolic Activation: RAT, LIVER, S-9, AROCLOR 1254 (10%), Method: PREINCUBATION); “inactive; negative” (Test System: AMES SALMONELLA TYPHIMURIUM, Strain/Indicator: TA1537, Metabolic Activation: HAMSTER, LIVER, S-9, AROCLOR 1254 (10%), Method: PREINCUBATION). The mutagenic call was “inactive; negative” under setting [4] and “inactive; negative” (Test System: AMES SALMONELLA TYPHIMURIUM, Strain/Indicator: TA1537, Metabolic Activation: RAT, LIVER, S-9, AROCLOR 1254 (10%), Method: PREINCUBATION).

Consider `CN(C)CCCNc1c2ccccc2nc2c(N(CCO)CCO)ccc([N+](=O)[O-])c12`, for which the mutagenic call reads like this: under setting [5], “active; positive”; under setting [6], “active; positive”.

`C[C@@H]1O[C@@H](O[C@H]2C[C@@H](O)[C@]3(CO)[C@H]4[C@H](O)C[C@]5(C)[C@@H](C6=CC(=O)OC6)CC[C@]5(O)[C@@H]4CC[C@]3(O)C2)[C@H](O)[C@H](O)[C@H]1O`: the mutagenic call (Test System: MOUSE LYMPHOMA, Strain/Indicator: L5178Y (TK+/TK-), Metabolic Activation: NONE, Method: SUSPENSION/PLATE) is “active; positive”.

As to `Nc1nc2c([nH]c(=O)n2[C@H]2C[C@H](O)[C@@H](CO)O2)c(=O)[nH]1`, the mutagenic call under setting [2] was “inactive; negative”.

Consider `COP(=S)(NC(C)C)Oc1ccccc1C(=O)OC(C)C` (stereo not given), for which the mutagenic call was “inactive; negative” under setting [5]; “inactive; negative” (Test System: AMES SALMONELLA TYPHIMURIUM, Strain/Indicator: TA98, Metabolic Activation: RAT, LIVER, S-9, PCB, Method: STANDARD PLATE); “inactive; negative” under setting [6]; “inactive; negative” (Test System: AMES SALMONELLA TYPHIMURIUM, Strain/Indicator: TA100, Metabolic Activation: RAT, LIVER, S-9, PCB, Method: STANDARD PLATE).

As to `O.O.O=C([O-])[C@H](O)[C@@H](O)[C@H](O)[C@H](O)CO.O=C([O-])[C@H](O)[C@@H](O)[C@H](O)[C@H](O)CO.[Fe+2]`, the mutagenic call is “inactive; negative” (Test System: AMES SALMONELLA TYPHIMURIUM, Strain/Indicator: TA97, Metabolic Activation: NONE, Method: PREINCUBATION); “inactive; negative” (Test System: AMES SALMONELLA TYPHIMURIUM, Strain/Indicator: TA97, Metabolic Activation: RAT, LIVER, S-9, AROCLOR 1254, Method: PREINCUBATION); “inactive; negative” (Test System: AMES SALMONELLA TYPHIMURIUM, Strain/Indicator: TA102, Metabolic Activation: NONE, Method: PREINCUBATION); “inactive; negative” (Test System: AMES SALMONELLA TYPHIMURIUM, Strain/Indicator: TA102, Metabolic Activation: RAT, LIVER, S-9, AROCLOR 1254, Method: PREINCUBATION).

For the compound `CC(Br)C(=O)O` (stereo not given), the mutagenic call is “active; positive (structural changes)” (End Point: IN VITRO CHROMOSOMAL ABERRATIONS, Test System: CHL CELLS, Metabolic Activation: RAT, LIVER, S-9, SODIUM PHENOBARBITAL AND 5,6-BENZOFLAVONE); “inactive; negative” under setting [1]; “inactive; negative” (Test System: AMES SALMONELLA TYPHIMURIUM, Strain/Indicator: TA98, Metabolic Activation: RAT LIVER S-9, PHENOBARBITAL AND BETA-NAPHTHOFLAVONE, Method: PREINCUBATION); “inactive; negative” under setting [2]; “inactive; negative” (Test System: AMES SALMONELLA TYPHIMURIUM, Strain/Indicator: TA100, Metabolic Activation: RAT LIVER S-9, PHENOBARBITAL AND BETA-NAPHTHOFLAVONE, Method: PREINCUBATION); “inactive; negative” under setting [3]. The mutagenic call reads like this: (Test System: AMES SALMONELLA TYPHIMURIUM, Strain/Indicator: TA1535, Metabolic Activation: RAT LIVER S-9, PHENOBARBITAL AND BETA-NAPHTHOFLAVONE, Method: PREINCUBATION) “active; positive”; under setting [4], “inactive; negative”; (Test System: AMES SALMONELLA TYPHIMURIUM, Strain/Indicator: TA1537, Metabolic Activation: RAT LIVER S-9, PHENOBARBITAL AND BETA-NAPHTHOFLAVONE, Method: PREINCUBATION) “inactive; negative”; (Test System: AMES SALMONELLA TYPHIMURIUM, Strain/Indicator: TA1538, Metabolic Activation: NONE, Method: PREINCUBATION) “inactive; negative”; (Test System: AMES SALMONELLA TYPHIMURIUM, Strain/Indicator: TA1538, Metabolic Activation: RAT LIVER S-9, PHENOBARBITAL AND BETA-NAPHTHOFLAVONE, Method: PREINCUBATION) “inactive; negative”; (Test System: E.COLI, Strain/Indicator: WP2UVRA, Metabolic Activation: NONE, Method: PREINCUBATION) “inactive; negative”. Under “Test System: E.COLI, Strain/Indicator: WP2UVRA, Metabolic Activation: RAT LIVER S-9, PHENOBARBITAL AND BETA-NAPHTHOFLAVONE, Method: PREINCUBATION”, the mutagenic call is “inactive; negative”.

On to `CC(=O)C[C@@H]1CCC(=O)CCC(=O)O[C@H](CC(C)=O)CCC(=O)CCC(=O)O1`, for which the mutagenic call (Test System: CHINESE HAMSTER V-79, Strain/Indicator: V-79 (HPRT)/6-THIOGUANINE, Metabolic Activation: NONE) was “inactive; negative”.

For the origin of these results see PubChem BioAssay AID1259407 (Chemical Carcinogenesis Research Information System (CCRIS), 2018).
